Experimental findings from patent US12129246B1, “Hydroquinazoline derivatives for the treatment of a disease or disorder” (Novartis AG, priority 2023, dated 2024) are described below.

In assay [1] the target is T1, human NPR1 (Homo sapiens, UniProt P16066).
T1 construct: host or cells: CHO-K1
T1 sequence (P16066 33-1061): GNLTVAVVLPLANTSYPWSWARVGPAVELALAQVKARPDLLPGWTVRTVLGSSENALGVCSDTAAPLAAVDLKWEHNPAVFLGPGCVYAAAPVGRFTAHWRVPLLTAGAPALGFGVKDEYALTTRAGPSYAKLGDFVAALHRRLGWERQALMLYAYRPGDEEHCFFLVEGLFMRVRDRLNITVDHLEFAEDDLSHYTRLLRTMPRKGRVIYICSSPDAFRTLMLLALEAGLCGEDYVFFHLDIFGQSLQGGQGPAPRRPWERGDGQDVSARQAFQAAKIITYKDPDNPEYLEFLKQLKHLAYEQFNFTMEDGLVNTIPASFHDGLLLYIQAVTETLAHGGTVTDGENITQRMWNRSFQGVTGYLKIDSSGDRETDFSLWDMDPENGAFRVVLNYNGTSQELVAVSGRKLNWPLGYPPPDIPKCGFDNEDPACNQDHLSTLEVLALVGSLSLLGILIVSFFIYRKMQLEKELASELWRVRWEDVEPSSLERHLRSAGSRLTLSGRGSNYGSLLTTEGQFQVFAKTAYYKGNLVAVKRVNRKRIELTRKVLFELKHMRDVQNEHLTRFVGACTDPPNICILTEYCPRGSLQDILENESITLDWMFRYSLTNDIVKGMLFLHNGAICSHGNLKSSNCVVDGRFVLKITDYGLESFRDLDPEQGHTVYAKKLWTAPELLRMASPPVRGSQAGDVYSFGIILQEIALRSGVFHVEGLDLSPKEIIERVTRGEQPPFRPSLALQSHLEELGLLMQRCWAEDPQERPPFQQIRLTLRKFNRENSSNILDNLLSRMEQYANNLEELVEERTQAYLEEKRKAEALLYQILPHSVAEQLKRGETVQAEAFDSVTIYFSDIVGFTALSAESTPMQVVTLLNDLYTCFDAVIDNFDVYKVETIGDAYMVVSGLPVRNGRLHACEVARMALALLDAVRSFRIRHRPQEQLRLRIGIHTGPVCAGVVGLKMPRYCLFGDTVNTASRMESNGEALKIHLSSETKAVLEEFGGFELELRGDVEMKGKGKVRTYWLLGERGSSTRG
The assay is described as follows: Cellular cGMP production assay, human NPR1 expressing CHO-K1 cells (CisBio HTRF). It counts as cell-based. Particulars: for AC50: cGMP production, 30 min at 37° C., 12-point dose-response from 30 μM; for Human NPR1 Amax (% of ANP): maximum cGMP production as percentage of the maximum cGMP produced with ANP. The procedure, abridged:
(§1)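 Read-out was HTRF (excitation 317 nm, emission 665 nm), with cGMP quantified as Delta F against a calibrator standard curve. Beforehand, cells were exposed for 30 min at 37 °C to compound (30 μM top, twelve 3-fold steps) in IBMX-containing PBS/BSA buffer, then lysed.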

The target of assay [2] is monkey NPR1 (Macaca fascicularis, UniProt A0A7N9DBT9). The assay is described as follows: Cellular cGMP production assay, monkey NPR1 expressing CHO-K1 cells (CisBio HTRF). It counts as cell-based. Conditions: for Monkey NPR1 Amax (% of ANP): maximum cGMP production as percentage of the maximum cGMP produced with ANP. The procedure, abridged: as §1
monkey NPR1, sequence (A0A7N9DBT9 entry or part of it): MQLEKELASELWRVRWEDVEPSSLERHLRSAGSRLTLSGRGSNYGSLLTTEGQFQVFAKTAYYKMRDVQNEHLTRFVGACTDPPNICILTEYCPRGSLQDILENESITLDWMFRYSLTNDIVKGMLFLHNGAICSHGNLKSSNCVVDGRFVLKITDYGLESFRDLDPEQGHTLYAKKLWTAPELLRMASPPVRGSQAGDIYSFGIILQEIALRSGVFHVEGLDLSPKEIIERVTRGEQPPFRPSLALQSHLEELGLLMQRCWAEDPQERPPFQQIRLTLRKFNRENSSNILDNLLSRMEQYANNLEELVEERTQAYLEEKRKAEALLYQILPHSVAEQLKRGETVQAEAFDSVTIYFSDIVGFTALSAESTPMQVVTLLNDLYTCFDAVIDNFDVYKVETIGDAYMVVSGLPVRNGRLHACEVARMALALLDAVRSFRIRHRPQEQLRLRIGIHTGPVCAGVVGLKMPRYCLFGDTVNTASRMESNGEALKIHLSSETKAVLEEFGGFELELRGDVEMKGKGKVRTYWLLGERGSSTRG
[3] abbreviates: cGMP production, monkey NPR1 CHO-K1 cells, 30 min at 37° C., 12-point dose-response from 30 μM, read-out: Monkey NPR1 AC50.

Read-outs that look alike come from different tables or passages of the source.

On to `CC[C@H]([C@H]1CC[C@H](C(=O)O)CC1)N(C)c1nc2c(c(N[C@@H](CN3CCC[C@H](C(F)F)C3)c3cnn(C)c3)n1)C[C@H](c1cccc(F)c1)CC2` [Compound 54, (1R,4r)-4-((R)-1-(((R)-4-(((R)-2-((S)-3-(difluoromethyl)piperidin-1-yl)-1-(1-methyl-1H-pyrazol-4-yl)ethyl)amino)-6-(3-fluorophenyl)-5,6,7,8-tetrahydroquinazolin-2-yl)(methyl)amino)propyl)cyclohexane-1-carboxylic acid], for which, in assay [1], the AC50 (commonly the concentration at which the activity in the assay is half-maximal) was determined as 194 nM and the “Human NPR1 Amax (% of ANP)” value is 95.979 % of ANP. The AC50 in assay [2] (setting [3]) worked out at 174 nM. In addition, in assay [2] (monkey NPR1 CHO-K1 cells), the “Monkey NPR1 Amax (% of ANP)” value is listed as 103.704 % of ANP.

Consider `CC[C@@H](Nc1nc2c(c(N[C@@H](CN3CCCCCC3)c3cnn(C)c3)n1)C[C@H](c1ccccc1)CC2)[C@H]1CC[C@H](C(=O)O)CC1` [Compound 51, (1R,4r)-4-((R)-1-(((R)-4-(((R)-2-(azepan-1-yl)-1-(1-methyl-1H-pyrazol-4-yl)ethyl)amino)-6-phenyl-5,6,7,8-tetrahydroquinazolin-2-yl)amino)propyl)cyclohexane-1-carboxylic acid], for which, in assay [1], the AC50 came to 187 nM and the “Human NPR1 Amax (% of ANP)” value is 106.105 % of ANP. Moreover, in assay [2] (setting [3]), the AC50 was 110 nM. In addition, the “Monkey NPR1 Amax (% of ANP)” value in assay [2] (monkey NPR1 CHO-K1 cells) was 104.734 % of ANP.

`CC[C@H]([C@H]1CC[C@H](C(=O)O)CC1)N(C)c1nc2c(c(N[C@@H](CN3CCC[C@H](CF)C3)c3cnn(C)c3)n1)C[C@H](c1cccc(F)c1)CC2` [Compound 19, (1R,4r)-4-((R)-1-(((R)-4-(((R)-2-((S)-3-(fluoromethyl)piperidin-1-yl)-1-(1-methyl-1H-pyrazol-4-yl)ethyl)amino)-6-(3-fluorophenyl)-5,6,7,8-tetrahydroquinazolin-2-yl)(methyl)amino)propyl)cyclohexane-1-carboxylic acid]: in assay [1], the AC50 is 108 nM and the “Human NPR1 Amax (% of ANP)” value was 100.504 % of ANP. For the same compound, the AC50 in assay [2] (setting [3]) is 82 nM. Moreover, in assay [2] (monkey NPR1 CHO-K1 cells), the “Monkey NPR1 Amax (% of ANP)” value was 98.174 % of ANP.

As to `C[C@@H](Nc1nc2c(c(N[C@@H](CN3C4CCCC3CCC4)c3cnn(C)c3)n1)C[C@H](c1ccccc1)CC2)c1ccc(C(=O)O)c(F)c1` [Compound 168, 4-((R)-1-(((R)-4-(((R)-2-((1S,5S)-9-azabicyclo[3.3.1]nonan-9-yl)-1-(1-methyl-1H-pyrazol-4-yl)ethyl)amino)-6-phenyl-5,6,7,8-tetrahydroquinazolin-2-yl)amino)ethyl)-2-fluorobenzoic acid], in assay [1], the AC50 stood at 2230 nM and the “Human NPR1 Amax (% of ANP)” value is listed as 96.777 % of ANP. Half-maximal activity in assay [2] (AC50) was put at 1540 nM. The “Monkey NPR1 Amax (% of ANP)” value in assay [2] (monkey NPR1 CHO-K1 cells) is listed as 93.654 % of ANP.

Take `CC[C@@H](Nc1nc2c(c(N[C@@H](CN3CCC(OC)CC3)c3cnn(C)c3)n1)C[C@H](c1ccccc1)CC2)[C@H]1CC[C@H](C(=O)O)CC1` [Compound 151, (1R,4r)-4-((R)-1-(((R)-4-(((R)-2-(4-methoxypiperidin-1-yl)-1-(1-methyl-1H-pyrazol-4-yl)ethyl)amino)-6-phenyl-5,6,7,8-tetrahydroquinazolin-2-yl)amino)propyl)cyclohexane-1-carboxylic acid]: in assay [1], half-maximal activity (AC50) was put at 1180 nM and the “Human NPR1 Amax (% of ANP)” value is on record as 88.350 % of ANP. In addition, the half-maximal activity concentration (AC50) in assay [2] (setting [3]) turned out to be 1330 nM. Besides, the “Monkey NPR1 Amax (% of ANP)” value in assay [2] (monkey NPR1 CHO-K1 cells) is on record as 96.950 % of ANP.

For the compound `CC[C@@H](N(C)c1nc2c(c(N[C@@H](CN3C4CCCC3CCC4)c3cnn(C)c3C)n1)C[C@H](c1cccc(F)c1)CC2)C12CC(C(=O)O)(C1)C2` [Compound 89, 3-((R)-1-(((R)-4-(((R)-2-((1S,5S)-9-azabicyclo[3.3.1]nonan-9-yl)-1-(1,5-dimethyl-1H-pyrazol-4-yl)ethyl)amino)-6-(3-fluorophenyl)-5,6,7,8-tetrahydroquinazolin-2-yl)(methyl)amino)propyl)bicyclo[1.1.1]pentane-1-carboxylic acid], in assay [1], the half-maximal activity concentration (AC50) amounted to 309 nM and the “Human NPR1 Amax (% of ANP)” value was 98.816 % of ANP. Besides, the half-maximal activity concentration (AC50) in assay [2] was determined as 268 nM. For the same compound, the “Monkey NPR1 Amax (% of ANP)” value in assay [2] (monkey NPR1 CHO-K1 cells) was 103.084 % of ANP.

Regarding `CC[C@H](N(C)c1nc2c(c(N[C@@H](CN3CCC[C@H](CF)C3)c3cnn(C)c3)n1)C[C@](C)(c1ccccc1)CC2)C12CC(C(=O)O)(C1)C2` [Compound 43, 3-((S)-1-(((R)-4-(((R)-2-((S)-3-(fluoromethyl)piperidin-1-yl)-1-(1-methyl-1H-pyrazol-4-yl)ethyl)amino)-6-methyl-6-phenyl-5,6,7,8-tetrahydroquinazolin-2-yl)(methyl)amino)propyl)bicyclo[1.1.1]pentane-1-carboxylic acid], in assay [1], the activity was half-maximal at 170 nM (AC50) and the “Human NPR1 Amax (% of ANP)” value is 101.178 % of ANP. In assay [2] (setting [3]), the AC50 amounted to 158 nM. For the same compound, the “Monkey NPR1 Amax (% of ANP)” value in assay [2] (monkey NPR1 CHO-K1 cells) is on record as 104.036 % of ANP.

For the compound `CC[C@H]([C@H]1CC[C@H](C(=O)O)CC1)N(C)c1nc2c(c(N[C@@H](CN3C4CCC3CC4)c3cnn(C)c3)n1)C[C@H](c1cccc(F)c1)CC2` [Compound 57, (1R,4r)-4-((R)-1-(((R)-4-(((R)-2-(7-azabicyclo[2.2.1]heptan-7-yl)-1-(1-methyl-1H-pyrazol-4-yl)ethyl)amino)-6-(3-fluorophenyl)-5,6,7,8-tetrahydroquinazolin-2-yl)(methyl)amino)propyl)cyclohexane-1-carboxylic acid], in assay [1], the AC50 stood at 199 nM and the “Human NPR1 Amax (% of ANP)” value is listed as 101.340 % of ANP. This compound gave an AC50 in assay [2] of 82 nM. Besides, in assay [2] (monkey NPR1 CHO-K1 cells), the “Monkey NPR1 Amax (% of ANP)” value is listed as 103.000 % of ANP.

Consider `CC[C@H]([C@H]1CC[C@H](C(=O)O)CC1)N(C)c1nc2c(c(N[C@@H](CN3CCC[C@H](C)C3)c3cnn(C)c3)n1)CN(c1ccc(F)cc1)CC2` [Compound 110, (1R,4r)-4-((R)-1-((6-(4-fluorophenyl)-4-(((R)-1-(1-methyl-1H-pyrazol-4-yl)-2-((S)-3-methylpiperidin-1-yl)ethyl)amino)-5,6,7,8-tetrahydropyrido[4,3-d]pyrimidin-2-yl)(methyl)amino)propyl)cyclohexane-1-carboxylic acid], for which, in assay [1], the AC50 amounted to 419 nM and the “Human NPR1 Amax (% of ANP)” value was 99.979 % of ANP. Further, in assay [2] (setting [3]), the AC50 worked out at 238 nM. The “Monkey NPR1 Amax (% of ANP)” value in assay [2] (monkey NPR1 CHO-K1 cells) is on record as 103.438 % of ANP.

Take `CC[C@H]([C@H]1CC[C@H](C(=O)O)CC1)N(C)c1nc2c(c(N[C@@H](CN3CC4CCC3C4)c3cnn(C)c3)n1)C[C@](C)(c1ccccc1)CC2` (stereo partly drawn) [Compound 68, (1R,4r)-4-((1R)-1-(((6R)-4-(((1R)-2-(2-azabicyclo[2.2.1]heptan-2-yl)-1-(1-methyl-1H-pyrazol-4-yl)ethyl)amino)-6-methyl-6-phenyl-5,6,7,8-tetrahydroquinazolin-2-yl)(methyl)amino)propyl)cyclohexane-1-carboxylic acid]: the AC50 was determined as 234 nM in assay [1] and 95 nM in assay [2] (setting [3]). In addition, the “Human NPR1 Amax (% of ANP)” value in assay [1] was 96.721 % of ANP. Moreover, in assay [2] (monkey NPR1 CHO-K1 cells), the “Monkey NPR1 Amax (% of ANP)” value is listed as 101.066 % of ANP.

With `CC[C@@H](Nc1nc2c(c(N[C@@H](CN3C4CCCC3CCC4)c3cnn(C(C)C)c3)n1)C[C@H](c1ccccc1)CC2)[C@H]1CC[C@H](C(=O)O)CC1` [Compound 132, (1R,4r)-4-((R)-1-(((R)-4-(((R)-2-((1S,5S)-9-azabicyclo[3.3.1]nonan-9-yl)-1-(1-isopropyl-1H-pyrazol-4-yl)ethyl)amino)-6-phenyl-5,6,7,8-tetrahydroquinazolin-2-yl)amino)propyl)cyclohexane-1-carboxylic acid], the concentration at half-maximal activity (AC50) in assay [1] was 757 nM; in assay [2], 620 nM. For the same compound, in assay [1], the “Human NPR1 Amax (% of ANP)” value is listed as 97.440 % of ANP. Also, in assay [2] (monkey NPR1 CHO-K1 cells), the “Monkey NPR1 Amax (% of ANP)” value is given as 103.231 % of ANP.
